The target in experiment [1] is T1, human TREX2 (residues M44-A279) (Homo sapiens, UniProt Q9BQ50).
T1 construct: human TREX2 (residues M44-A279, expressed in E. coli); His-Tev (His tag with TEV site) (N); made in house; host or cells: E. coli
T1 sequence (Q9BQ50 44-279 isoform Q9BQ50-1): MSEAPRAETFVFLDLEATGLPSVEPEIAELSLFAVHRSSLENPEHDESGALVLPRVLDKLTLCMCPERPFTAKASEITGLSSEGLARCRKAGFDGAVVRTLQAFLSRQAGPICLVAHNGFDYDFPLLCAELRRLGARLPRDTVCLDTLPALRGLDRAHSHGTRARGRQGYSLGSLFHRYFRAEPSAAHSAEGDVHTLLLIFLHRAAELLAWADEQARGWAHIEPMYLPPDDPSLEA
Description: TREX2 Biochemical Assay (fluorescence assay, degradation of dsDNA substrate). To be noted: 2.5 nM TREX2, 60 nM dsDNA substrate, 25 minutes at room temperature. An outline of the steps:
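Final conditions: 2.5 nM His-Tev-tagged TREX2 (E. coli-expressed), 60 nM fluorophore/quencher-labelled dsDNA, 50 mM Tris pH 7.4, 150 mM NaCl, 100 mM MgCl2, 1% DMSO; 10-point compound dose-response. Incubated 25 min at room temperature, then EDTA-quenched; fluorescence read at ex 570/em 615 nm. IC50 from four-parameter fit against pre-quenched and no-inhibitor controls.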

In the next experiment the target is T2, full length human TREX1 (Homo sapiens, UniProt Q9NSU2).
T2 construct: N-terminally His-Tev tagged full length human TREX1; His-Tev (His tag with TEV site) (N); made in house; host or cells: E. coli
T2 sequence (Q9NSU2 1-314): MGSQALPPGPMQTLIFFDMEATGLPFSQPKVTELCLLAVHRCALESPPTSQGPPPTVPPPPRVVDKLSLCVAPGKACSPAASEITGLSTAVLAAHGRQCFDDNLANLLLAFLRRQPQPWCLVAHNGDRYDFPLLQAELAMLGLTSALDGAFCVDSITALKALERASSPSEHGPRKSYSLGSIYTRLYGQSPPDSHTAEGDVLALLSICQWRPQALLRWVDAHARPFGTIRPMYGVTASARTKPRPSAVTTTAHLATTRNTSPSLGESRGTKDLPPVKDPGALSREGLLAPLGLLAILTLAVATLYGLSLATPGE
Description: TREX1 Biochemical Assay (fluorescence assay, degradation of dsDNA substrate). To be noted: 150 pM TREX1, 60 nM dsDNA substrate, 25 minutes at room temperature. An outline of the steps:
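N-terminally His-Tev-tagged enzyme expressed in E. coli, 150 pM, with 60 nM dual-labelled dsDNA (TEX615/quencher) in pH 7.4 Tris buffer with MgCl2, 1% DMSO; 10-point dose-response, 25 min at room temperature, then EDTA quench. Fluorescence at 615 nm (excitation 570 nm); IC50 from four-parameter fit against pre-quenched and no-inhibitor controls.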

Data on 14 compounds can be found in patent publication US20220313701A1, “MODULATORS OF TREX1” (Constellation Pharmaceuticals, Inc., priority 2019, published 2022).

Bounds are passed on as bounds.

As to `O=C(NCc1ccncc1)c1cncc(N2CCC(O)(c3ccc(F)cc3)CC2)n1` [Example 65, 6-(4-(4-fluorophenyl)-4-hydroxypiperidin-1-yl)-N-(pyridin-4-ylmethyl)pyrazine-2-carboxamide], the IC50 in experiment [1] was greater than 100 µM; on full length human TREX1 it was greater than 10 µM.

Turning to `O=C(NCc1ccccn1)c1cncc(N2CCC(O)(c3ccc(F)cc3)CC2)n1` [Example 66, 6-(4-(4-fluorophenyl)-4-hydroxypiperidin-1-yl)-N-(pyridin-2-ylmethyl)pyrazine-2-carboxamide], the values for the IC50 (in experiment [1]; at full length human TREX1) were greater than 100 µM and greater than 10 µM, respectively.

Regarding `CN1CCN(C(=O)c2cncc(N3CCC(O)(c4ccc(F)cc4)CC3)n2)CC1` [Example 67, (6-(4-(4-fluorophenyl)-4-hydroxypiperidin-1-yl)pyrazin-2-yl)(4-methylpiperazin-1-yl)methanone], the figures for the IC50 (in experiment [1]; at full length human TREX1) were greater than 100 µM and greater than 10 µM, respectively.

`O=C(NCCc1ccccn1)c1cncc(N2CCC(O)(c3ccc(F)cc3)CC2)n1` [Example 68, 6-(4-(4-fluorophenyl)-4-hydroxypiperidin-1-yl)-N-(2-(pyridin-2-yl)ethyl)pyrazine-2-carboxamide]: the half-maximal inhibitory concentration (IC50) in experiment [1] was greater than 100 µM; against full length human TREX1 it was 1 to 10 µM.

As for `COCCNC(=O)c1cncc(N2CCC(O)(c3ccc(F)cc3)CC2)n1` [Example 69, 6-(4-(4-fluorophenyl)-4-hydroxypiperidin-1-yl)-N-(2-methoxyethyl)pyrazine-2-carboxamide], the IC50 was greater than 100 µM in experiment [1] and greater than 10 µM on full length human TREX1.

For `CN(C)CCCNC(=O)c1cncc(N2CCC(O)(c3ccc(F)cc3)CC2)n1` [Example 70, N-(3-(dimethylamino)propyl)-6-(4-(4-fluorophenyl)-4-hydroxypiperidin-1-yl)pyrazine-2-carboxamide], the IC50 was greater than 100 µM in experiment [1] and greater than 10 µM against full length human TREX1.

`O=C(NCC(O)c1ccccc1)c1cncc(N2CCC(O)(c3ccc(F)cc3)CC2)n1` (stereo not shown) [Example 71, 6-(4-(4-fluorophenyl)-4-hydroxypiperidin-1-yl)-N-(2-hydroxy-2-phenylethyl)pyrazine-2-carboxamide]: the figures for the concentration for half-maximal inhibition (IC50) (in experiment [1]; against full length human TREX1) were greater than 100 µM and 1 to 10 µM, respectively.

On to `Cc1cnn(-c2cncc(N3CCC(O)(c4ccc(F)cc4)CC3)n2)c1` [Example 72, 4-(4-fluorophenyl)-1-(6-(4-methyl-1H-pyrazol-1-yl)pyrazin-2-yl)piperidin-4-ol], for which the IC50 in experiment [1] was greater than 100 µM; against full length human TREX1, 1 to 10 µM.

With `OC1(c2ccccc2)CCN(c2cncc(-n3cccn3)n2)CC1` [Example 73, 1-(6-(1H-pyrazol-1-yl)pyrazin-2-yl)-4-phenylpiperidin-4-ol], the IC50 was greater than 100 µM in experiment [1] and greater than 10 µM against full length human TREX1.

For the compound `OC1(c2ccccn2)CCN(c2cncc(-n3cccn3)n2)CC1` [Example 74, 1-(6-(1H-pyrazol-1-yl)pyrazin-2-yl)-4-(pyridin-2-yl)piperidin-4-ol], the IC50 in experiment [1] was greater than 100 µM; on full length human TREX1, greater than 10 µM.

Consider `OC1(c2cccnc2)CCN(c2cncc(-n3cccn3)n2)CC1` [Example 75, 1-(6-(1H-pyrazol-1-yl)pyrazin-2-yl)-4-(pyridin-3-yl)piperidin-4-ol], for which the half-inhibitory concentration (IC50) in experiment [1] is greater than 100 µM; against full length human TREX1, greater than 10 µM.

As to `OC1(c2ccncc2)CCN(c2cncc(-n3cccn3)n2)CC1` [Example 76, 1-(6-(1H-pyrazol-1-yl)pyrazin-2-yl)-4-(pyridin-4-yl)piperidin-4-ol], the results for the IC50 (in experiment [1]; on full length human TREX1) were greater than 100 µM and greater than 10 µM, respectively.

As for `OC1(c2ccc(F)cc2)CCN(c2cncc(N3CCCC3)n2)CC1` [Example 78, 4-(4-fluorophenyl)-1-(6-(pyrrolidin-1-yl)pyrazin-2-yl)piperidin-4-ol], the IC50 in experiment [1] was greater than 100 µM; on full length human TREX1, greater than 10 µM.

For the compound `OC1(c2ccc(F)cc2)CCN(c2cccc(-n3cccn3)n2)CC1` [Example 79, 1-(6-(1H-pyrazol-1-yl)pyridin-2-yl)-4-(4-fluorophenyl)piperidin-4-ol], the values for the IC50 (in experiment [1]; against full length human TREX1) were greater than 100 µM and 1 to 10 µM, respectively.

For orientation: IC50 means the point on the concentration scale where inhibition reaches its midpoint.
